# Assay results reported in ChEMBL document CHEMBL1201862, “PubChem BioAssay data set” (2004).
#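 48-hour exposure; five concentrations; linearly interpolated endpoints. At the GI50, growth is halved.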 Active and inactive are the calls of the source. Rule as the data show it: active = GI50 up to about 1.1 µM and inactive = higher.
# Tests used:
# Experiment in all cases: NCI-60 cell line screen, 48 h
# [1] = tested on: RXF 393
# [2] = tested on: OVCAR-3
# [3] = tested on: RPMI-8226
# [4] = tested on: OVCAR-4
# [5] = tested on: IGROV-1
# [6] = tested on: Malme-3M
# [7] = tested on: M14
# [8] = tested on: LOX IMVI
# [9] = tested on: U-251
# [10] = tested on: SNB-75
# [11] = tested on: SNB-19
# [12] = tested on: RXF 631
# [13] = tested on: CAKI-1
# [14] = tested on: MOLT-4
# [15] = tested on: HOP-62
# [16] = tested on: DLD-1
# [17] = tested on: KM12
# [18] = tested on: HOP-92
# [19] = tested on: SW-620
# [20] = tested on: COLO 205
# [21] = tested on: ACHN
# [22] = tested on: NCI-H460
# [23] = tested on: SK-MEL-5
# [24] = tested on: HCC 2998
# [25] = tested on: CCRF-CEM
# [26] = tested on: K562
# [27] = tested on: UO-31
# [28] = tested on: SK-MEL-28
# [29] = tested on: NCI-H23
# [30] = tested on: LXFL 529
# [31] = tested on: SNB-78
# [32] = tested on: DMS-114
# [33] = tested on: 786-0
# [34] = tested on: OVCAR-8
# [35] = tested on: TK-10
# [36] = tested on: A498
# [37] = tested on: HOP-18
# [38] = tested on: OVCAR-5
# [39] = tested on: SK-OV-3
# [40] = tested on: SF-295
# [41] = tested on: EKVX
# [42] = tested on: HCT-15
# [43] = tested on: SF-539
# [44] = tested on: NCI-H522
# [45] = tested on: XF498
# [46] = tested on: SN12C
# [47] = tested on: DMS-273
# [48] = tested on: A549
# [49] = tested on: UACC-257
# [50] = tested on: KM-20L2
# [51] = tested on: SF-268
# [52] = tested on: HT-29
# [53] = tested on: HL-60
# [54] = tested on: UACC-62
# [55] = tested on: M19-MEL
# [56] = tested on: SK-MEL-2
# [57] = tested on: NCI-H226
# [58] = tested on: SR
# [59] = tested on: HCT-116
smiles,measurement,setting,value
CN(CCc1ccccn1)c1nc(=[N+](C)C)ss1,GI50,[1],> 100 µM (inactive)
same,GI50,[2],66.8 µM (inactive)
same,GI50,[3],> 100 µM (inactive)
same,GI50,[4],> 100 µM (inactive)
same,GI50,[5],> 100 µM (inactive)
same,GI50,[6],> 100 µM (inactive)
same,GI50,[7],> 100 µM (inactive)
same,GI50,[8],> 100 µM (inactive)
same,GI50,[9],> 100 µM (inactive)
same,GI50,[10],> 100 µM (inactive)
same,GI50,[11],> 100 µM (inactive)
same,GI50,[12],> 100 µM (inactive)
same,GI50,[13],> 100 µM (inactive)
same,GI50,[14],> 100 µM (inactive)
same,GI50,[15],> 100 µM (inactive)
same,GI50,[16],> 100 µM (inactive)
same,GI50,[17],28.1 µM (inactive)
same,GI50,[18],> 100 µM (inactive)
same,GI50,[19],> 100 µM (inactive)
same,GI50,[20],> 100 µM (inactive)
same,GI50,[21],> 100 µM (inactive)
same,GI50,[22],46.3 µM (inactive)
same,GI50,[23],> 100 µM (inactive)
same,GI50,[24],> 100 µM (inactive)
same,GI50,[25],81.3 µM (inactive)
same,GI50,[26],> 100 µM (inactive)
same,GI50,[27],> 100 µM (inactive)
same,GI50,[28],> 100 µM (inactive)
same,GI50,[29],> 100 µM (inactive)
same,GI50,[30],72.9 µM (inactive)
same,GI50,[31],> 100 µM (inactive)
same,GI50,[32],> 100 µM (inactive)
same,GI50,[33],> 100 µM (inactive)
same,GI50,[34],> 100 µM (inactive)
same,GI50,[35],> 100 µM (inactive)
same,GI50,[36],> 100 µM (inactive)
same,GI50,[37],> 100 µM (inactive)
same,GI50,[38],> 100 µM (inactive)
same,GI50,[39],> 100 µM (inactive)
same,GI50,[40],56.1 µM (inactive)
same,GI50,[41],> 100 µM (inactive)
same,GI50,[42],> 100 µM
same,GI50,[43],> 100 µM (inactive)
same,GI50,[44],8.02 µM (inactive)
same,GI50,[45],> 100 µM (inactive)
same,GI50,[46],> 100 µM (inactive)
same,GI50,[47],> 100 µM (inactive)
same,GI50,[48],35.3 µM (inactive)
same,GI50,[49],> 100 µM (inactive)
same,GI50,[50],> 100 µM (inactive)
same,GI50,[51],> 100 µM (inactive)
same,GI50,[52],38.5 µM (inactive)
same,GI50,[53],> 100 µM (inactive)
same,GI50,[54],64.1 µM (inactive)
same,GI50,[55],78.5 µM (inactive)
same,GI50,[56],> 100 µM (inactive)
CN(C)CCC[N+]1=Nc2cccc3cccc(c23)N1,GI50,[2],> 100 µM (inactive)
same,GI50,[3],22.8 µM (inactive)
same,GI50,[4],47.1 µM (inactive)
same,GI50,[5],31.4 µM (inactive)
same,GI50,[6],> 100 µM (inactive)
same,GI50,[7],21.1 µM (inactive)
same,GI50,[8],31.9 µM (inactive)
same,GI50,[9],60 µM (inactive)
same,GI50,[10],> 100 µM (inactive)
same,GI50,[11],> 100 µM (inactive)
same,GI50,[12],> 100 µM (inactive)
same,GI50,[13],37.1 µM (inactive)
same,GI50,[14],24.4 µM (inactive)
same,GI50,[15],> 100 µM (inactive)
same,GI50,[16],17.5 µM (inactive)
same,GI50,[17],> 100 µM (inactive)
same,GI50,[18],66.7 µM (inactive)
same,GI50,[19],10.4 µM (inactive)
same,GI50,[20],> 10 µM (inactive)
same,GI50,[21],50.7 µM (inactive)
same,GI50,[22],35.6 µM (inactive)
same,GI50,[23],14.1 µM (inactive)
same,GI50,[24],24.2 µM (inactive)
same,GI50,[25],29.9 µM (inactive)
same,GI50,[26],31.8 µM (inactive)
same,GI50,[27],96.4 µM (inactive)
same,GI50,[57],> 100 µM (inactive)
same,GI50,[28],56.2 µM (inactive)
same,GI50,[29],> 100 µM (inactive)
same,GI50,[30],49.8 µM (inactive)
same,GI50,[31],> 100 µM (inactive)
same,GI50,[32],60.3 µM (inactive)
same,GI50,[33],49.8 µM (inactive)
same,GI50,[34],46.6 µM (inactive)
same,GI50,[35],59.4 µM (inactive)
same,GI50,[36],27.4 µM (inactive)
same,GI50,[37],> 100 µM (inactive)
same,GI50,[38],> 100 µM (inactive)
same,GI50,[39],> 100 µM (inactive)
same,GI50,[40],> 100 µM (inactive)
same,GI50,[41],> 100 µM (inactive)
same,GI50,[42],39.3 µM
same,GI50,[43],99.5 µM (inactive)
same,GI50,[44],38 µM (inactive)
same,GI50,[58],16.9 µM (inactive)
same,GI50,[45],> 100 µM (inactive)
same,GI50,[46],85.1 µM (inactive)
same,GI50,[47],18.8 µM (inactive)
same,GI50,[48],> 100 µM (inactive)
same,GI50,[49],48.5 µM (inactive)
same,GI50,[50],23.7 µM (inactive)
same,GI50,[51],> 100 µM (inactive)
same,GI50,[52],33.6 µM (inactive)
same,GI50,[53],18.2 µM (inactive)
same,GI50,[54],34.1 µM (inactive)
same,GI50,[55],48.2 µM (inactive)
same,GI50,[59],44.6 µM (inactive)
same,GI50,[56],> 100 µM (inactive)
